Holding throughout (format): in vivo, C57BL/6J mice
For assay [1], the system named is nociceptive sensitivity of the mice of the control (“Sham”) group. The assay is described as follows: von Frey filament test in control (Sham) mice operated without cuff. The following applies: for Sensitivity of control (Sham) animals under chronic treatment, recapitulation (FIG. 26): chronic treatment (14-21 days), doses and modes as in examples 2, 7, 9 to 14 and 20 (formoterol 0.5 mg/kg, terbutalin 5 mg/kg); for Nociceptive sensitivity of control (Sham) mice under chronic treatment: repeated injections, doses and modes as for the Cuff mice of the same example.
Procedure: (§1) The experiments were carried out on adult male mice. The pharmacological experiments were carried out using C57BL/6J mice (3-to-6 weeks old on their arrival, Charles River, L'Arbresle, France).
(§2) The model is obtained by placing a polyethylene cuff around the main branch of the right sciatic nerve of each mouse. Before any surgical procedure, the mice were assigned to the various experimental groups in such a way that the baseline mechanical nociception threshold and the weight are equivalent between the various groups. The surgical procedure was carried out under ketamin-xylazin anesthesia (ketamin: 17 mg/ml, xylazin 2.5 mg/ml, intraperitoneal injection in a proportion of 4 ml/kg) (limited liability company Centravet, Taden, France). The common branch of the sciatic nerve was exposed and a section 2 mm long of a hollow PE-20 polyethylene tube (“Harvard Apparatus”, Les Ulis, France) was placed around said branch (“Cuff” group). […] Control mice were operated on according to the same procedure, but without placing the cuff (“Sham” group). The experimental groups are made up of at least 4 mice for each control (“Sham”) group and at least 5 mice for each neuropathic (“Cuff”) group.
(§3) The mice are placed in transparent Plexiglas (registered trademark) boxes (7 cm×9 cm×7 cm) placed on a raised grid. Before the test, the mice are allowed to become accustomed to this device for 15 minutes. During the test, the von Frey filaments are applied to the plantar surface of each back foot according to ascending forces (from 0.16 g up to a foot withdrawal response, or up to a maximum of 10 g). Each filament is tested 5 times per foot and the threshold is defined by the presence of 3 or more withdrawals observed over the 5 tests. Before the surgery as described above, the animals were pretested in order to establish their baseline nociceptive response. During the chronic treatment experiments and those of repeated injection of antagonists, the tests are carried out in the mornings before the first injection of the day. During the acute agonist injection experiments, the tests are carried out after the first injection according to the time course as presented on the graphs.
(§4) For all the treatments carried out by injection, said injections were given intraperitoneally in a volume of 50 microL per 10 mg of body weight.

Assay [2] deals with mechanical allodynia of the neuropathic (“Cuff”) mice. The assay is described as follows: Cotreatment with adrenoreceptor antagonists in Cuff mice relieved by chronic nortriptylin or beta-agonist treatment, von Frey test. The following applies: for Effect of coadministered beta2-adrenoreceptor antagonist ICI 118,551 on the allodynia of agonist-treated Cuff mice: ICI 118,551 2 mg/kg intraperitoneal, after 3 weeks of agonist treatment (doses as in chronic treatment; terbutalin 0.5 mg/kg), 3 to 6 days of cotreatment; for Effect of ICI 118,551 on the therapeutic effect of chronic agonist treatment on neuropathic allodynia, summary statement: chronic treatment with the agonist plus beta2-adrenoreceptor antagonist ICI 118,551; for Blocking of the effect of antidepressants on neuropathic allodynia by repeated antagonist treatment, summary statement: doses as in examples 3 to 6.
Procedure: as §2
For the tests, in the examples which follow, the pressure is exerted on the foot of the mice by means of von Frey filaments (Bioseb, Chaville, France) (Benbouzid, M. et al. Biological Psychiatry 63:633-636 (2008) (10) and Benbouzid, M. et al. European Journal of Pain 12:591-599 (2008) (11)). The mice are placed in transparent Plexiglas (registered trademark) boxes (7 cm×9 cm×7 cm) placed on a raised grid. Before the test, the mice are allowed to become accustomed to this device for 15 minutes. During the test, the von Frey filaments are applied to the plantar surface of each back foot according to ascending forces (from 0.16 g up to a foot withdrawal response, or up to a maximum of 10 g). Each filament is tested 5 times per foot and the threshold is defined by the presence of 3 or more withdrawals observed over the 5 tests. Before the surgery as described above, the animals were pretested in order to establish their baseline nociceptive response. During the chronic treatment experiments and those of repeated injection of antagonists, the tests are carried out in the mornings before the first injection of the day. During the acute agonist injection experiments, the tests are carried out after the first injection according to the time course as presented on the graphs.
The procedure for intrathecal (i.t.) injection of the beta2-adrenoreceptor antagonist ICI 118,551 (3 μg in 10 μl) is carried out under halothane gas anesthesia according to the protocol described by Inoue et al. (Nature Medicine 2004, 10:712-718 (12)). These i.t. injections are carried out just before the intraperitoneal injection of salbutamol (2 mg/kg, i.p.). A 27-gauge injection needle connected to a 50 μl Hamilton syringe is inserted, between the L5 and L6 vertebrae, into the subarachnoid space. The correct placement of the needle is verified by the presence of a reflex movement of the tail of the mouse. The mice are pretested before this cotreatment procedure, and then cotreated twice (a morning and the corresponding evening) before being retested the following morning for their mechanical nociceptive sensitivity.

Assay [3] has the same test system. Briefly: Sciatic nerve cuff murine model of neuropathic pain, von Frey filament test in neuropathic (Cuff) mice. Conditions: for Mechanical allodynia in neuropathic (Cuff) mice after chronic treatment: injection twice a day; for Mechanical allodynia of Cuff mice after the first (acute) injection: intraperitoneal, mice neuropathic for 2 weeks; for Allodynia in neuropathic (Cuff) animals after chronic treatment, recapitulation (FIG. 25): chronic treatment (14-21 days), doses and modes as in examples 7, 9 to 14 and 20 (formoterol 0.5 mg/kg, terbutalin 5 mg/kg); for Effect on neuropathic allodynia acutely after the first injection, summary statement: first injection of the agonist, doses as in examples 7, 9, 11 and 15.
Procedure: as §1
All the experiments began with mice that were 6-to-9 weeks old. […] For all the other experiments, the mice were combined at four to five per cage and kept under alternating 12-hour day/night (light at 6 am) with food and water ad libitum.
as §2, §3
The surgery for installing the cuff corresponds to day 0.
as §4

Where [4] appears, read: intraperitoneal antagonist, doses as for the Cuff mice of the same example (ICI 118,551 2 mg/kg, yohimbin 2 mg/kg, propranolol 5 mg/kg), with or without cotreatment.
Where [5] appears, read: antagonist 2 mg/kg intraperitoneal with nortriptylin 5 mg/kg twice a day, after 3 weeks of nortriptylin (metoprolol, ICI 118,551: for 6 days).

Structures are written as SMILES. Entries after “also recorded” stand apart in the source; their conditions may differ. Where a name gives a salt, the structure may show the parent alone.

`CN(C)C(=O)Oc1cc(OC(=O)N(C)C)cc(C(O)CNC(C)(C)C)c1` (stereo not drawn) [bambuterol]: the “Control (Sham) mice after the first administration” value in assay [1] (bambuterol 0.5 mg/kg, intraperitoneal, first injection) is “unaffected”. For the same molecule, in assay [1], the “Sensitivity of control (Sham) animals under chronic treatment, recapitulation (FIG. 26)” value (shortened to “Sensitivity of control (Sham) animals”) is given as “do not affect the control animals; also recorded: does not aspecifically affect the sensitivity of the control animals” and the “Nociceptive sensitivity of control (Sham) mice under chronic treatment” value is listed as “not affected”. For the same molecule, in assay [2], the “Effect of coadministered beta2-adrenoreceptor antagonist ICI 118,551 on the allodynia of agonist-treated Cuff mice” value is given as “causes the allodynia to reappear” and the “Effect of ICI 118,551 on the therapeutic effect of chronic agonist treatment on neuropathic allodynia, summary statement” value was “blocks the therapeutic effect”. Further, in assay [3] (0.5 mg/kg), the “Mechanical allodynia in neuropathic (Cuff) mice after chronic treatment” value is listed as “completely suppresses the mechanical allodynia” and the “Mechanical allodynia of Cuff mice after the first (acute) injection” value is recorded as “has no anti-allodynia effect”. Moreover, in assay [3], the “Allodynia in neuropathic (Cuff) animals after chronic treatment, recapitulation (FIG. 25)” value (“Allodynia in neuropathic (Cuff) animals” below) is “relieve this allodynia; also recorded: causes the neuropathic pain, for example the neuropathic allodynia, to completely disappear” and the “Effect on neuropathic allodynia acutely after the first injection, summary statement” value is listed as “not observed acutely after the first injection”.

Consider `CC(C)NCC(O)c1ccc(O)c(O)c1` (racemic) [isoprenalin, DL-isoproterenol chloride], for which the “Sensitivity of control (Sham) animals” value in assay [1] is recorded as “do not affect the control animals; also recorded: does not aspecifically affect the sensitivity of the control animals”. In assay [2], the “Effect of coadministered beta2-adrenoreceptor antagonist ICI 118,551 on the allodynia of agonist-treated Cuff mice” value is on record as “causes the allodynia to reappear” and the “Effect of ICI 118,551 on the therapeutic effect of chronic agonist treatment on neuropathic allodynia, summary statement” value was “blocks the therapeutic effect”. The “Mechanical allodynia in neuropathic (Cuff) mice after chronic treatment” value in assay [3] (0.5 mg/kg) is given as “completely suppresses the mechanical allodynia”. Further, the “Allodynia in neuropathic (Cuff) animals” value in assay [3] is “relieve this allodynia; also recorded: causes the neuropathic pain, for example the neuropathic allodynia, to completely disappear”.

As to `CC(C)NCC(O)COc1ccc(CC(N)=O)cc1` (stereo not drawn) [atenolol], in assay [2] (5 mg/kg in place of metoprolol 2 mg/kg, same results = as metoprolol (no influence on the therapeutic benefit)), the “Effect of antagonist cotreatment with nortriptylin, compared with metoprolol” value was “same results”.

On to `CC(C)(C)NCC(O)c1ccc(O)c(CO)c1` (stereo not drawn) [salbutamol], for which, in assay [1], the “Sensitivity of control (Sham) animals” value is listed as “do not affect the control animals; also recorded: does not aspecifically affect the sensitivity of the control animals” and the “Nociceptive sensitivity of control (Sham) mice under chronic treatment” value is “not affected”. Also, the “Effect of intrathecal beta2-adrenoreceptor antagonist ICI 118,551 on the allodynia of agonist-treated Cuff mice” value in assay [2] (ICI 118,551 3 μg in 10 μl intrathecal before each of 2 injections of salbutamol 2 mg/kg i.p., after at least 3 weeks of salbutamol) is on record as “causes the allodynia to reappear; also recorded: blocks the therapeutic effect”. In addition, in assay [2], the “Effect of coadministered beta2-adrenoreceptor antagonist ICI 118,551 on the allodynia of agonist-treated Cuff mice” value is given as “causes the allodynia to reappear” and the “Effect of ICI 118,551 on the therapeutic effect of chronic agonist treatment on neuropathic allodynia, summary statement” value is listed as “blocks the therapeutic effect”. Besides, in assay [3] (2 mg/kg), the “Mechanical allodynia in neuropathic (Cuff) mice after chronic treatment” value is listed as “relieves the mechanical allodynia” and the “Mechanical allodynia of Cuff mice after the first (acute) injection” value is recorded as “has no effect on the mechanical allodynia”. Moreover, in assay [3], the “Allodynia in neuropathic (Cuff) animals” value is listed as “relieve this allodynia; also recorded: causes the neuropathic pain, for example the neuropathic allodynia, to completely disappear” and the “Effect on neuropathic allodynia acutely after the first injection, summary statement” value is listed as “not observed acutely after the first injection”. Also, the “Mechanical allodynia in neuropathic (Cuff) mice after chronic treatment by inhalation” value in assay [3] (salbutamol sulfate inhaler (Ventolin), twice a day, 100 μg per session for 2 weeks, then inhaler pressed 3 times per session for 9 days) was “relieves the mechanical allodynia; also recorded: relieves neuropathic allodynia”.

For `Cc1ccc(OCC(O)C(C)NC(C)C)c2c1CCC2` (stereo not drawn) [ICI 118,551], the “Nociceptive sensitivity of control (Sham) mice under antagonist injections” value is “not affected” in assay [1] (ICI 118,551 intraperitoneal (2 mg/kg) or intrathecal (3 μg in 10 μl), with salbutamol) and “not affected; also recorded: does not affect the response of the control animals” in assay [1] (setting [4]). Also, the “Time to reappearance of allodynia after the beginning of the cotreatment with nortriptylin” value in assay [2] (ICI 118,551 2 mg/kg intraperitoneal coadministered with nortriptylin, Cuff mice) is at most 48 h. In assay [2] (setting [5]), the “Effect of antagonist cotreatment on the therapeutic benefit of nortriptylin in Cuff mice” value (“Effect of antagonist cotreatment … in Cuff mice” below) is given as “leads to reappearance of the neuropathic allodynia”. Besides, the “Blocking of the effect of antidepressants on neuropathic allodynia by repeated antagonist treatment, summary statement” value (“Blocking” for short) in assay [2] is reported as “blocks the effect of antidepressants”.

`COCCc1ccc(OCC(O)CNC(C)C)cc1` (racemic) [metoprolol, (+/−)-metoprolol (+)-tartrate]: the “Effect of antagonist cotreatment … in Cuff mice” value in assay [2] (setting [5]) is on record as “has no influence on the therapeutic benefit”. Also, the “Blocking” value in assay [2] is “only the beta2-adrenoreceptor antagonist blocks the effect of antidepressants”.

As to `CC(C)NCC(O)COc1cccc2ccccc12` (racemic) [propranolol, (+/−)-propranolol hydrochloride], the “Nociceptive sensitivity of control (Sham) mice under antagonist injections” value in assay [1] (intraperitoneal antagonist, doses as for the Cuff mice of the same example (ICI 118,551 2 mg/kg, yohimbin 2 mg/kg, propranolol 5 mg/kg), with or without cotreatment, hydrochloride) is listed as “not affected; also recorded: does not affect the response of the control animals”. For the same molecule, the “Effect of antagonist cotreatment … in Cuff mice” value in assay [2] (antagonist 5 mg/kg intraperitoneal with nortriptylin 5 mg/kg twice a day, after 3 weeks of nortriptylin) is listed as “causes the allodynia to reappear in a few days”. In addition, in assay [2], the “Blocking” value is given as “blocks the therapeutic effect of antidepressants”.

As for `CC(C)NCC(O)c1ccc(NS(C)(=O)=O)cc1.Cl` (racemic) [sotatol, (+/−) sotatol hydrochloride], the “Effect of antagonist cotreatment with nortriptylin, compared with propranolol” value in assay [2] (2 mg/kg in place of propranolol 5 mg/kg, same results = as propranolol (allodynia reappears in Cuff, Sham not affected)) is given as “same results”.

In the case of `COC(=O)[C@@H]1[C@H]2C[C@H]3c4[nH]c5ccccc5c4CCN3C[C@@H]2CC[C@@H]1O` [yohimbin], the “Nociceptive sensitivity of control (Sham) mice under antagonist injections” value in assay [1] (setting [4]) was “not affected”. Further, the “Effect of antagonist cotreatment … in Cuff mice” value in assay [2] (setting [5]) was “has no influence on the therapeutic benefit”. In assay [2], the “Blocking” value is given as “ineffective in blocking the analgesic effect of antidepressants”.

Turning to `CCc1ccccc1OC[C@@H](O)CN[C@H]1CCCc2ccccc21` [SR59230A], the “Effect of antagonist cotreatment … in Cuff mice” value in assay [2] (antagonist 2.5 mg/kg intraperitoneal for 6 days with nortriptylin, after 3 weeks of nortriptylin) was “has no influence on the therapeutic benefit”. Further, in assay [2], the “Blocking” value is listed as “only the beta2-adrenoreceptor antagonist blocks the effect of antidepressants”.

In the case of `CC(C)NCC(O)c1cc(O)cc(O)c1` (stereo not drawn) [metaproterenol], the “Sensitivity of control (Sham) animals” value in assay [1] is “do not affect the control animals; also recorded: does not aspecifically affect the sensitivity of the control animals”. In assay [3] (1 mg/kg), the “Mechanical allodynia in neuropathic (Cuff) mice after chronic treatment” value is recorded as “completely suppresses the mechanical allodynia”. Besides, the “Mechanical allodynia in neuropathic (Cuff) mice after chronic application of a gel to the skin” value in assay [3] (0.1 ml of gel twice a day, 1 mg/ml metaproterenol hemisulfate in 5% hydroxyethylcellulose gel, from 8 days after surgery) was “relieves the mechanical allodynia; also recorded: relieves neuropathic allodynia”. Besides, the “Allodynia in neuropathic (Cuff) animals” value in assay [3] was “relieve this allodynia; also recorded: causes the neuropathic pain, for example the neuropathic allodynia, to completely disappear”.

For the origin of these results see patent US20110027352A1, “COMPOUNDS FOR USE IN THE TREATMENT OF NEUROPATHIC PAIN” (priority 2008, published 2011).
